Experimental data taken from patent publication US9334289B2, “Cephem compound having catechol or pseudo-catechol structure” (SHIONOGI & CO., LTD., priority 2011, dated 2016).
≈ marks a conversion by molar mass, not a printed value. Where two headings read alike, the source gives them in different places.

Legend:
Assay in all cases: MIC, CLSI broth microdilution, Test Example 1
Type in all cases: cell-based
P. aeruginosa SR24 = conditions: for MIC: Pseudomonas aeruginosa
[1] = tested on: K. pneumoniae ATCCBAA-1705; conditions: for MIC: Klebsiella pneumoniae
Description: (§1) Measurement of Minimum Inhibitory Concentration (MIC: μg/mL) was conducted according to CLSI (Clinical and Laboratory Standards Institute) method, and the amount of bacteria for inoculation was 5×10^5 cfu/mL, and cation-adjusted Mueller Hinton broth containing human apo-transferrin was used as a test medium, and the experiment was conducted using broth microdilution method. The bacteria used are listed below.

P. aeruginosa SR27060 = conditions: for MIC: Pseudomonas aeruginosa
Description: as §1

P. aeruginosa SR24837 = conditions: for MIC: Pseudomonas aeruginosa
Description: as §1

E. coli ATCCBAA-200 = conditions: SHV-4 ESBL producing strain, cation-adjusted Mueller Hinton broth containing human apo-transferrin, 5×10^5 cfu/mL; for MIC: Escherichia coli, ATCCBAA200, read-out: Minimum Inhibitory Concentration (MIC) E. coli ATCC BAA-200
Description: as §1

E. coli ATCCBAA-199 = conditions: SHV-3 ESBL producing strain, cation-adjusted Mueller Hinton broth containing human apo-transferrin, 5×10^5 cfu/mL; for MIC: Escherichia coli, ATCCBAA199, read-out: Minimum Inhibitory Concentration (MIC) E. coli ATCC BAA-199
Description: as §1

A. baumannii SR27323 = conditions: for MIC: Acinetobacter baumannii
Description: as §1

[2] = SR24, Ceftazidime resistance strain, cation-adjusted Mueller Hinton broth containing human apo-transferrin, 5×10^5 cfu/mL, read-out: Minimum Inhibitory Concentration (MIC) P. aeruginosa SR24
[3] = ATCCBAA1705, KPC-2 carbapenemase producing strain, cation-adjusted Mueller Hinton broth containing human apo-transferrin, 5×10^5 cfu/mL, read-out: Minimum Inhibitory Concentration (MIC) K. pneumoniae ATCCBAA-1705
[4] = SR27060, IMP-1 MBL producing strain (carbapenem resistance strain), cation-adjusted Mueller Hinton broth containing human apo-transferrin, 5×10^5 cfu/mL, read-out: Minimum Inhibitory Concentration (MIC) P. aeruginosa SR27060
[5] = SR24837, PER-1 ESBL producing strain, cation-adjusted Mueller Hinton broth containing human apo-transferrin, 5×10^5 cfu/mL, read-out: Minimum Inhibitory Concentration (MIC) P. aeruginosa SR24837
[6] = SR27323, OXA-23, OXA-58 carbapenemase producing strain, cation-adjusted Mueller Hinton broth containing human apo-transferrin, 5×10^5 cfu/mL, read-out: Minimum Inhibitory Concentration (MIC) A. baumannii SR27323

SMILES	MIC (P. aeruginosa SR24; [2]) [µg/mL]	MIC [1, 3] [µg/mL]	MIC (P. aeruginosa SR27060; [4]) [µg/mL]	MIC (P. aeruginosa SR24837; [5]) [µg/mL]	MIC (E. coli ATCCBAA-200) [µg/mL]	MIC (E. coli ATCCBAA-199) [µg/mL]	MIC (A. baumannii SR27323; [6]) [µg/mL]	MIC (P. aeruginosa SR24; SR24, read-out: Minimum Inhibitory Concentration (MIC) P. aeruginosa SR24) [µg/mL]	MIC ([1]; ATCCBAA1705, read-out: Minimum Inhibitory Concentration (MIC) K. pneumoniae ATCCBAA-1705) [µg/mL]	MIC (P. aeruginosa SR27060; SR27060, read-out: Minimum Inhibitory Concentration (MIC) P. aeruginosa SR27060) [µg/mL]	MIC (P. aeruginosa SR24837; SR24837, read-out: Minimum Inhibitory Concentration (MIC) P. aeruginosa SR24837) [µg/mL]	MIC (A. baumannii SR27323; SR27323, read-out: Minimum Inhibitory Concentration (MIC) A. baumannii SR27323) [µg/mL]	Minimum Inhibitory Concentration (MIC) P. aeruginosa SR24 (P. aeruginosa SR24; Ceftazidime resistance strain, cation-adjusted Mueller Hinton broth containing human apo-transferrin, 5×10^5 cfu/mL) [µg/mL]	Minimum Inhibitory Concentration (MIC) K. pneumoniae ATCCBAA-1705 ([1]; KPC-2 carbapenemase producing strain, cation-adjusted Mueller Hinton broth containing human apo-transferrin, 5×10^5 cfu/mL)	Minimum Inhibitory Concentration (MIC) P. aeruginosa SR27060 (P. aeruginosa SR27060; IMP-1 MBL producing strain (carbapenem resistance strain), cation-adjusted Mueller Hinton broth containing human apo-transferrin, 5×10^5 cfu/mL) [µg/mL]	Minimum Inhibitory Concentration (MIC) P. aeruginosa SR24837 (P. aeruginosa SR24837; PER-1 ESBL producing strain, cation-adjusted Mueller Hinton broth containing human apo-transferrin, 5×10^5 cfu/mL) [µg/mL]	Minimum Inhibitory Concentration (MIC) E. coli ATCC BAA-200 (E. coli ATCCBAA-200) [µg/mL]	Minimum Inhibitory Concentration (MIC) E. coli ATCC BAA-199 (E. coli ATCCBAA-199) [µg/mL]	Minimum Inhibitory Concentration (MIC) A. baumannii SR27323 (A. baumannii SR27323; OXA-23, OXA-58 carbapenemase producing strain, cation-adjusted Mueller Hinton broth containing human apo-transferrin, 5×10^5 cfu/mL) [µg/mL]
CC(C)(O/N=C(\C(=O)N[C@@H]1C(=O)N2C(c3nn[n-]n3)=C(C[n+]3ccc(NCc4ccc(O)c(O)c4Cl)cc3)CS[C@H]12)c1csc(N)n1)C(=O)[O-].[Na+] [Compound I-49]	0.063	≤ 0.031	1	0.25	0.5	0.25	1												
CC(C)(O/N=C(\C(=O)N[C@@H]1C(=O)N2C(c3nnn[n-]3)=C(C[N+]3(CCNC(=O)c4cc(O)c(O)cc4Cl)CCCC3)CS[C@H]12)c1csc(N)n1)C(=O)[O-].[Na+] [Compound I-50]	0.25	≤ 0.031	1	2	0.5	0.25	1												
CC(C)(O/N=C(\C(=O)N[C@@H]1C(=O)N2C(c3nnn[n-]3)=C(C[N+]3(CCNC(=O)c4cc(O)c(O)c(Cl)c4)CCCC3)CS[C@H]12)c1csc(N)n1)C(=O)[O-].[Na+] [Compound I-52]	0.25	≤ 0.031	1	2	0.5	0.125	1												
CC(C)(O/N=C(\C(=O)N[C@@H]1C(=O)N2C(c3nnn[nH]3)=C(C[N+]3(CCNC(=O)c4cc(Cl)c(O)c(O)c4Cl)CCCC3)CS[C@H]12)c1csc(N)n1)C(=O)[O-] [Compound I-53]	0.25 (≈ 0.308 µM)	≤ 0.031	0.5 (≈ 0.617 µM)	0.063 (≈ 0.0777 µM)	0.125 (≈ 0.154 µM)	0.063 (≈ 0.0777 µM)	1 (≈ 1.23 µM)												
CC(C)(O/N=C(\C(=O)N[C@@H]1C(=O)N2C(c3nnn[n-]3)=C(C[N+]3(CCNC(=O)c4ccc(O)c(O)c4F)CCCC3)CS[C@H]12)c1csc(N)n1)C(=O)[O-].[Na+] [Compound I-54]	≤ 0.031	≤ 0.031	0.25	0.25	0.5	0.25	1												
CC(C)(O/N=C(\C(=O)N[C@@H]1C(=O)N2C(c3nnn[n-]3)=C(C[N+]3(CCNC(=O)c4cc(O)c(O)cc4F)CCCC3)CS[C@H]12)c1csc(N)n1)C(=O)[O-].[Na+] [Compound I-55]	0.25	≤ 0.031	1	0.5	1	0.25	2												
CC(C)(O/N=C(\C(=O)N[C@@H]1C(=O)N2C(c3nnn[nH]3)=C(C[N+]3(CCNC(=O)c4cc(O)c(O)c(F)c4)CCCC3)CS[C@H]12)c1csc(N)n1)C(=O)[O-] [Compound I-56]	≤ 0.031	≤ 0.031	0.5 (≈ 0.658 µM)	0.25 (≈ 0.329 µM)	0.25 (≈ 0.329 µM)	0.125 (≈ 0.165 µM)	0.5 (≈ 0.658 µM)												
CC(C)(O/N=C(\C(=O)N[C@@H]1C(=O)N2C(c3nnn[n-]3)=C(Cn3cc4ccc(CNC(=O)c5ccc(O)c(O)c5Cl)c[n+]4c3)CS[C@H]12)c1csc(N)n1)C(=O)[O-].[Na+] [Compound I-58]	0.125	≤ 0.031	0.5	0.5	0.5	0.25	1												
CC(C)(O/N=C(\C(=O)N[C@@H]1C(=O)N2C(c3nnn[n-]3)=C(C[n+]3ccc(CNC(=O)c4ccc(O)c(O)c4Cl)cc3)CS[C@H]12)c1csc(N)n1)C(=O)[O-].[Na+] [Compound I-71]					0.5	0.25		0.063	≤ 0.031	0.25	1	1							
CC(C)(O/N=C(\C(=O)N[C@@H]1C(=O)N2C(c3nnn[n-]3)=C(C[n+]3cccc(NC(=O)c4ccc(O)c(O)c4Cl)c3)CS[C@H]12)c1csc(N)n1)C(=O)[O-].[Na+] [Compound I-73]	0.125	≤ 0.031	0.25	0.25	0.125	0.063	0.25												
CC(C)(O/N=C(\C(=O)N[C@@H]1C(=O)N2C(c3nnn[n-]3)=C(Cn3cc[n+](CCNC(=O)c4ccc(O)c(O)c4Cl)c3)CS[C@H]12)c1csc(N)n1)C(=O)[O-].[Na+] [Compound I-74]	0.125	≤ 0.031	0.25	0.5	0.125	0.063	0.5												
CC(C)(O/N=C(\C(=O)N[C@@H]1C(=O)N2C(c3nnn[nH]3)=C(C[n+]3cccc4c3CCCN4C(=O)c3ccc(O)c(O)c3Cl)CS[C@H]12)c1csc(N)n1)C(=O)[O-] [Compound I-75]	0.063 (≈ 0.0791 µM)	0.063 (≈ 0.0791 µM)	0.25 (≈ 0.314 µM)	0.063 (≈ 0.0791 µM)	0.5 (≈ 0.628 µM)	0.125 (≈ 0.157 µM)	1 (≈ 1.26 µM)												
CC(C)(O/N=C(\C(=O)N[C@@H]1C(=O)N2C(c3nnn[nH]3)=C(C[n+]3cccc4c(NC(=O)c5ccc(O)c(O)c5Cl)cccc43)CS[C@H]12)c1csc(N)n1)C(=O)[O-] [Compound I-76]	0.125 (≈ 0.155 µM)	≤ 0.031	0.5 (≈ 0.62 µM)	0.125 (≈ 0.155 µM)	0.5 (≈ 0.62 µM)	0.25 (≈ 0.31 µM)	0.5 (≈ 0.62 µM)												
CC(C)(O/N=C(\C(=O)N[C@@H]1C(=O)N2C(c3nnn[n-]3)=C(C[n+]3ccc4cc(O)c(O)cc4c3)CS[C@H]12)c1csc(N)n1)C(=O)[O-].[Na+] [Compound I-77]	≤ 0.031	≤ 0.031	0.25	≤ 0.031	0.063	≤ 0.031	0.125												
CC(C)(O/N=C(\C(=O)N[C@@H]1C(=O)N2C(c3nnn[nH]3)=C(C[n+]3ccc(NC(=O)c4ccc(O)c(O)c4Cl)c4ccccc43)CS[C@H]12)c1csc(N)n1)C(=O)[O-] [Compound I-78]	0.125 (≈ 0.155 µM)	≤ 0.031	0.25 (≈ 0.31 µM)	0.125 (≈ 0.155 µM)	0.5 (≈ 0.62 µM)	0.25 (≈ 0.31 µM)	0.25 (≈ 0.31 µM)												
CC(C)(O/N=C(\C(=O)N[C@@H]1C(=O)N2C(c3nnn[n-]3)=C(C[n+]3ccc(-c4ccc(O)c(O)c4Cl)cc3)CS[C@H]12)c1csc(N)n1)C(=O)[O-].[Na+] [Compound I-79]	≤ 0.031	≤ 0.031	0.25	0.063	1	0.5	0.125												
CC(C)(O/N=C(\C(=O)N[C@@H]1C(=O)N2C(c3nnn[n-]3)=C(C[N+]34CCCC3(CNC(=O)c3ccc(O)c(O)c3Cl)CCC4)CS[C@H]12)c1cnc(N)s1)C(=O)[O-].[Na+] (stereo partly shown) [Compound I-80]	≤ 0.031	≤ 0.031	0.25	0.125	1	0.5	2												
CC(C)(O/N=C(\C(=O)N[C@@H]1C(=O)N2C(c3nnn[n-]3)=C(C[N+]3(CCNC(=O)c4ccc(O)c(O)c4Cl)CCCC3)CS[C@H]12)c1nc(N)sc1Cl)C(=O)[O-].[Na+] [Compound I-88]	0.063	0.063	0.5	≤ 0.031	0.125	0.063	0.5												
Nc1nc(C(=NOC(CC(=O)[O-])C(=O)[O-])C(=O)NC2C(=O)N3C(c4nnn[n-]4)=C(C[N+]4(CCNC(=O)c5ccc(O)c(O)c5Cl)CCCC4)CSC23)c(Cl)s1.[Na+].[Na+] (stereo not shown) [Compound I-91]													0.063	≦0.031 μg/ml	0.125	0.063	0.25	0.125	0.5
